Measurements published in patent US20030216448A1, “Treatment of neuropathic pain” (priority 2002, published 2003).
Counter-ions that a name gives are not always drawn.

How the values were obtained:
[1] = side effects observed after injection in spinal nerve ligated rats; format: in vivo, rat
[2] = tested on: rat paw withdrawal model of acute thermal pain; experiment: rat paw withdrawal model of acute thermal pain, normal rats; format: in vivo; details: A-85380 0.75 μmol/kg
Excerpt: For the assessment of acute pain, a paw thermal stimulator was used to evaluate nociceptive responses to an acute thermal stimulus (Anesthesiology Research Laboratory, Department of Anesthesiology, University of California at San Diego, La Jolla, Calif.). The device and behavioral procedure have been described previously (Hargreaves et al., A new and sensitive method for measuring thermal nociception in cutaneous hyperalgesia, Pain 1988, 32:77-88; Dirig et al., Characterization of variables defining hind paw withdrawal latency evoked by radiant thermal stimuli, J. Neurosci. Meth. 1997; 76:183-191). […] The measured nociceptive response was the latency to withdraw the hind paw when heated by light from a focused projector lamp (current set at 4.8 A). […]
(§1) For acute thermal pain experiments, a baseline withdrawal threshold was determined, and then chlorisondamine or its vehicle was administered. […]
For experiments with repeated measures, i.e. acute thermal pain and mechanical allodynia, data were first analyzed using a two way repeated measures analysis of variance (ANOVA) with two independent factors. For experiments without repeated measures, i.e. formalin, data were first analyzed using a two way ANOVA with two independent factors. […] All post hoc significance was determined using Fishers LSD.

[3] = tested on: formalin model of persistent pain; experiment: formalin model of persistent pain, phase two; format: in vivo, rat; details: A-85380 0.75 μmol/kg
Experimental: The formalin test was used as an assessment of persistent pain. The method, described previously (Bannon et al. 1998) is briefly as follows. Following acclimation to the test environment, 50 μl of a 5% formalin solution was injected subcutaneously into the dorsal surface of one of the rear paws. Only phase two, defined as the 20 minute period from 30 to 50 minutes post formalin injection, was scored for nocifensive behaviors including flinching, licking, and biting.
For formalin experiments, chlorisondamine or its vehicle was infused either 24 h or 40-50 minutes prior to further manipulation. A-85380 was then injected and, 5 minutes later, formalin was injected into the paw. Measures were taken between 30 and 50 minutes post formalin injection.
For experiments with repeated measures, i.e. acute thermal pain and mechanical allodynia, data were first analyzed using a two way repeated measures analysis of variance (ANOVA) with two independent factors. For experiments without repeated measures, i.e. formalin, data were first analyzed using a two way ANOVA with two independent factors. If there was a significant interaction of both factors or of both factors and time, subsequent post hoc one way ANOVAs were performed using each treatment combination as an independent group. The difference in paw withdrawal latencies between the affected and unaffected paw of neuropathic animals tested in acute thermal pain was assessed using a paired t-test. All post hoc significance was determined using Fishers LSD.

[4] = tested on: rat spinal nerve ligation model of neuropathic pain; experiment: mechanical allodynia (von Frey) in the spinal nerve ligation model of neuropathic pain; format: in vivo
Excerpt: (§2) Under halothane anesthesia, the L5 and L6 spinal nerves were tightly ligated in the manner described previously by Chung et al. (Kim S. H., Chung J. M., An experimental model for peripheral neuropathy produced by segmental spinal nerve ligation in the rat. Pain 1992; 50:355-363.). Briefly, an incision was made on the dorsal portion of the hip, and the muscle was blunt dissected to reveal the spinal processes. The L6 transverse process was removed, and the left L5 and L6 spinal nerves were tightly ligated with 5.0 braided silk suture. The wound was cleaned, the membrane sewn with 4.0 dissolvable Vicryl suture and the skin closed with wound clips.
Implantation of the DRG catheters was performed immediately following nerve ligation, with animals maintained under halothane for the entire procedure (35-40 minutes). Catheters were constructed of PE 20 with small pieces of tygon tubing cemented along the catheter to allow for suture anchoring points during surgery. The left L5 DRG was exposed by removing the posterior articular process of the L5 vertebra. Gelfoam was inserted into the cavity to prevent the catheter from damaging the ganglion. The catheter was sutured to the muscle and fascia, then run subcutaneously to exteriorize between the shoulder blades. Saline was infused into the catheter, and it was heat sealed.
The implantation of i.c.v. cannulae were conducted under sodium pentobarbital (50 mg/kg, i.p. Nembutal) anesthesia with nerve ligation occurring just after the implantation; animals were maintained under anesthesia for the entire procedure (40-45 minutes). Animals were implanted with a 22 gauge guide cannulae (Plastics One, Roanoke Va.) cut to 6 mm. The stereotaxic coordinates from bregma were 1.0 mm posterior, 1.6 mm lateral, and 4.5 ventral (Paxinos G. and Watson C., The rat brain in stereotaxic coordinates. New York: Academic Press, 1997). Three skull screws were attached for stability, and the implant was covered with cranioplastic acrylic.
For i.c.v. (intracerebroventricular) infusion, chlorisondamine (10 μg) was dissolved in 5 μl phosphate buffered saline and infused by syringe pump at a rate of 5 μl/min. The infusion was performed 24 hours prior to testing in order to reduce stress to the animals immediately prior to behavioral testing.
For all other routes of administration including intraperotineal (i.p.), intradermal (i.d.) or onto the DRG, chlorisondamine was dissolved in saline. The final volumes for i.p. injections were 1 ml/kg, for i.d. were 50 μl and for DRG injections were 10 μl. All injections were made by hand held syringe.
For the assessment of neuropathic pain, mechanical allodynia in the affected paw of animals who had undergone spinal nerve ligation was evaluated using von Frey filaments. As described previously (Chaplan et al., Quantitative assessment of tactile allodynia in the rat paw. J Neurosci Meth, 1994; 53:55-62), two weeks following surgery, rats were acclimated to the testing box which was constructed of plexiglass with a wire mesh floor to allow access to the planter surface of the hind paws. Using the Dixons Up-Down method, a baseline level of allodynia was taken with allodynia defined as a withdrawal threshold ≦4 g. Test compounds were then administered and subsequent withdrawal thresholds determined.
For spinal nerve ligation experiments, the timing of antagonist administration depended upon the route of administration. With i.c.v. administration, chlorisondamine or its vehicle was given 24 hours prior to further manipulation. On the day of the experiment, a baseline allodynia score was determined and then A-85380 or its vehicle control was given and measures taken at 15, 30 and 60 minutes post agonist injection. Dose response curves for i.p., i.d. and DRG administration were also determined using this time line. […]

[5] = tested on: rat paw withdrawal model of acute thermal pain using neuropathic rats; experiment: rat paw withdrawal model of acute thermal pain using neuropathic rats; format: in vivo; details: antagonist 0.4 μmol/kg, i.p., A-85380 0.75 μmol/kg
Excerpt: as §2
For the assessment of acute pain, a paw thermal stimulator was used to evaluate nociceptive responses to an acute thermal stimulus (Anesthesiology Research Laboratory, Department of Anesthesiology, University of California at San Diego, La Jolla, Calif.). […] The measured nociceptive response was the latency to withdraw the hind paw when heated by light from a focused projector lamp (current set at 4.8 A). […]
as §1
To address this concern, neuropathic rats were assessed in the acute thermal model of paw withdrawal. […]

Cl.Cl.c1cncc(OC[C@@H]2CCN2)c1 [A-85380, 3-(2(S)-azetidinylmethoxy)pyridine dihydrochloride]
behaviors induced immediately following injection ([1]; A-85380 0.5-1.0 μmol/kg, i.p.): prostration and ataxia | time point by which prostration and ataxia abated ([1]; A-85380 0.5-1.0 μmol/kg, i.p.): ≤ 15 min | antinociception (increase in paw withdrawal latency) ([2]; i.p.): antinociceptive action | analgesia (decrease in flinches), phase two of formalin test ([3]; i.p.): analgesic effects | duration of anti-allodynia after DRG infusion ([4]; 10 μg onto the L5 DRG): 15 min | duration of anti-allodynia after DRG infusion ([4]; 20 μg onto the L5 DRG): 30 min | anti-allodynia after ipsalateral paw injection ([4]; 10, 20 and 50 μg/rat, i.d., affected paw, predominately at 15 minutes): only the 50 μg dose of A-85380 had an anti-allodynic effect | anti-allodynia after contralateral paw injection ([4]; 10, 20 and 50 μg/rat, i.d., unaffected paw, predominately at 15 minutes): all three doses of A-85380 induced a significant anti-allodynia | anti-allodynia when infused onto the L5 DRG ([4]; 10 and 20 μg onto the L5 DRG on the side of the ligation): significant anti-allodynia | potency to increase paw withdrawal threshold, DRG compared with i.p. and i.d. administration ([4]; i.d. and DRG doses converted to equivalent systemic dose, fifteen-minute time point): decidedly more potent when administered directly onto the DRG | anti-allodynia (paw withdrawal threshold), systemic administration ([4]; i.p., multiple doses, 15, 30 and 60 minutes): dose dependent anti-allodynia

O=C(NO)c1cncc(N2C[C@H]3CNC[C@H]32)c1 [A-420503, (IR, 5S) 5-(3,6-diazabicyclo [3.2.0]hept-6-yl)-N-hydroxy-nicotinamide]
side effects when injected i.p. ([1]; 62 μmol/kg, i.p.): without any notable side effects | anti-allodynia at the DRG ([4]; 4.77 μmol/kg, i.p.): significant anti-allodynia | anti-allodynia when injected i.p. ([4]; 62 μmol/kg, i.p.): significant anti-allodynia | effect of antagonist pretreatment on the compound's effects at the DRG ([4]; pretreatment with an NMR antagonist): blocked

C[N+](C)(C)CCCCCC[N+](C)(C)C [Hexamethonium, hexamethonium]
effect of systemically administered antagonist on A-85380 induced anti-allodynia ([4]; antagonist 19 μmol/kg, i.p. 30 minutes prior, A-85380 0.75 μmol/kg, i.p.): blocked

CNC1(C)C2CCC(C2)C1(C)C (stereo not shown) [Mecamylamine, mecamylamine hydrochloride]
effect of antagonist on prostration and ataxia following A-85380 injection ([1]; antagonist 1 μmol/kg, i.p. 30 minutes prior to A-85380): blocked the prostration and ataxia | effect of antagonist pretreatment on A-85380 induced anti-allodynia ([4]; antagonist 1 μmol/kg, i.p. 30 minutes prior, A-85380 0.75 μmol/kg, i.p.): completely blocked

C[N+](C)(C)CC[N+]1(C)Cc2c(Cl)c(Cl)c(Cl)c(Cl)c2C1 [chlorisondamine, chlorisondamine diiodide]
effect of antagonist pretreatment on the antinociceptive action of A-85380 ([2]; antagonist 0.4 μmol/kg, i.p. 30 minutes prior): no effect | effect of systemically administered antagonist on A-85380-induced analgesia ([3]; antagonist 0.4 μmol/kg, i.p. 40-50 minutes prior to formalin): no significant attenuation | effect of i.c.v. antagonist on A-85380-induced analgesia ([3]; antagonist 10 μg i.c.v. 24 hours prior, i.p.): completely blocked | effect of antagonist on A-85380 induced antinociception in neuropathic rats [5]: did not alter | effect of systemically administered antagonist on A-85380 induced anti-allodynia ([4]; antagonist 0.4 μmol/kg, i.p. 30 minutes prior, A-85380 0.75 μmol/kg, i.p.): completely blocked | effect of systemic antagonist on anti-allodynia induced by A-85380 infused onto the DRG ([4]; antagonist 0.4 μmol/kg, i.p. 30 minutes prior, A-85380 20 μg onto DRG): completely blocked | effect of i.c.v. antagonist on A-85380 induced anti-allodynia ([4]; antagonist 10 μg i.c.v. 24 hours prior, A-85380 0.75 μmol/kg, i.p.): completely blocked
